Laboratory results reported in the supplement of paper PMC10307832.

How the values were obtained:
Assay in all cases: relative viability (nuclei count vs DMSO), 5 days (fraction); higher = more cells survive
FG-4592 + Luminespib = compound: Cc1nc(C(=O)NCC(=O)O)c(O)c2ccc(Oc3ccccc3)cc12 [FG-4592] + CCNC(=O)c1noc(-c2cc(C(C)C)c(O)cc2O)c1-c1ccc(CN2CCOCC2)cc1 [Luminespib] (partner 0.01 µM)
Method in brief: (§1)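 Values are medians from duplicate plates. Each reflects relative viability, defined as the nuclei count of treated wells over that of vehicle wells. Lung cancer cell lines in 1536-well plates were pin-tool dosed one day after seeding with one drug alone or with a fixed anchor-drug dose plus five library-drug doses (not always all listed) in √10 steps, then fixed, stained and imaged at 4× after 5 days.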

FG-4592 + Alpelisib = compound: Cc1nc(C(=O)NCC(=O)O)c(O)c2ccc(Oc3ccccc3)cc12 [FG-4592] + Cc1nc(NC(=O)N2CCC[C@H]2C(N)=O)sc1-c1ccnc(C(C)(C)C(F)(F)F)c1 [Alpelisib] (partner 2 µM)
Method in brief: as §1

IU1-47 + Dasatinib = compound: CC1=CC(=C(N1C2=CC=C(C=C2)Cl)C)C(=O)CN3CCCCC3 [IU1-47] + Cc1nc(Nc2ncc(C(=O)Nc3c(C)cccc3Cl)s2)cc(N2CCN(CCO)CC2)n1 [Dasatinib] (partner 0.075 µM)
Method in brief: as §1

FG-4592 + Decitabine = compound: Cc1nc(C(=O)NCC(=O)O)c(O)c2ccc(Oc3ccccc3)cc12 [FG-4592] + Nc1ncn([C@H]2C[C@H](O)[C@@H](CO)O2)c(=O)n1 [Decitabine] (partner 2 µM)
Method in brief: as §1

Cell Line: UMC-11
- relative viability (FG-4592 + Luminespib; first compound 0.08 µM): 0.957
- relative viability (FG-4592 + Luminespib; first compound 0.253 µM): 0.944
- relative viability (FG-4592 + Luminespib; first compound 0.8 µM): 1.01
- relative viability (FG-4592 + Luminespib; first compound 2.53 µM): 0.995
- relative viability (FG-4592 + Luminespib; first compound 8 µM): 0.778
- relative viability (FG-4592 + Alpelisib; first compound 0.08 µM): 1.03
- relative viability (FG-4592 + Alpelisib; first compound 0.253 µM): 0.944
- relative viability (FG-4592 + Alpelisib; first compound 0.8 µM): 1
- relative viability (FG-4592 + Alpelisib; first compound 2.53 µM): 1.18
- relative viability (FG-4592 + Alpelisib; first compound 8 µM): 0.998
- relative viability (IU1-47 + Dasatinib; first compound 0.08 µM): 0.429
- relative viability (IU1-47 + Dasatinib; first compound 0.253 µM): 0.423
- relative viability (IU1-47 + Dasatinib; first compound 0.8 µM): 0.572
- relative viability (IU1-47 + Dasatinib; first compound 2.53 µM): 0.388
- relative viability (IU1-47 + Dasatinib; first compound 8 µM): 0.341
- relative viability (FG-4592 + Decitabine; first compound 0.08 µM): 0.54
- relative viability (FG-4592 + Decitabine; first compound 0.253 µM): 0.604
- relative viability (FG-4592 + Decitabine; first compound 0.8 µM): 0.532
- relative viability (FG-4592 + Decitabine; first compound 2.53 µM): 0.423
- relative viability (FG-4592 + Decitabine; first compound 8 µM): 0.365
